From patent publication US20050112123A1, “Methods of treating proteinuria” (priority 2003, published 2005) come the findings set out here.

This test concerns conditionally immortalized podocytes from transgenic HIV Tg-26. Put plainly: MTT proliferation assay, HIV transgenic (Tg) podocytes under growth restriction. The conditions noted are these: 25 ATRA, FIG. 6. The class given is cell-based, mouse. How it is done:
To test the hypothesis that ATRA altered the proliferative capacity of podocytes in HIV transgenic mice, conditionally immortalized podocytes harvested from transgenic HIV Tg-26 (Tg) and conditionally immortalized podocytes from transgene free or wild-type podocytes (controls) were compared in a series of studies. Both transgenic and wild-type cell lines were initially plated in “growth permissive” conditions (33° C.) and grown in 10 ml of “standard media,” consisting of 90% RPMI 1640 (Invitrogen, Grand Island, N.Y.), 10% fetal bovine serum (Hyclone, Logan, Utah), 1% L-glutamine (Irvine Scientific, Santa Ana, Calif.), 1% pen-strep (Biosource, Rockville, Md.), 1% sodium bicarbonate (Sigma-Aldrich, St Louis, Mo.) and 1% HEPES buffer (Sigma-Aldrich, Santa, Ana, Calif.), and 1% sodium pyruvate (Irvine Scientific, Santa Ana, Calif.). For growth promotion, 5 μl of mouse gamma interferon were added to 10 ml of media. […]
Each study group was assessed for proliferation (see below) at three different time points as follows: (i) day “1” of growth restriction which was defined as 24 h after plating cells into growth restrictive conditions; (ii) day 7 of growth restrictive conditions. […]
Cell proliferation was assessed by the MTT (Promega, Madison, Wis.) assay on days 1, 7, and 14 of growth restriction. […]
Background: Tetrazolium dyes change colour on reduction, which living cells bring about.

For the compound `CC1=C(/C=C/C(C)=C/C=C/C(C)=C/C(=O)O)C(C)(C)CCC1` [ATRA, all-trans retinoic acid], the “reduction of proliferation of transgenic podocytes (MTT) compared to Tg podocytes without ATRA” value (day 7 of growth restriction, p<.05) worked out at 50% and the “reduction of proliferation of transgenic podocytes (MTT) compared to Tg podocytes without ATRA” value (day 14 of growth restriction, p<0.005) is on record as 25%.
